Earlier results as cited in US20090054305A1, “Mixtures of Amylin and Insulin” (Novo Nordisk A/S, priority 2006, published 2009).
Ends that are not written are not given here.

Conditions: compared to human amylin

Substance | solubility and stability characteristics
^18Arg^25, 28Pro-h-amylin | more desirable solubility and stability characteristics
^25Pro^26Val^28, 29Pro-h-amylin | more desirable solubility and stability characteristics

Conditions: treated test animals, e.g. provoking marked hyperlactemia followed by hyperglycemia

Substance | amylin activity in vivo
^18Arg^25, 28Pro-h-amylin | amylin activity in vivo
^28Pro-h-amylin | amylin activity in vivo
des-^1Lys-h-amylin (CNTATCATQRLANFLVHSSNNFGAILSSTNVGSNTY; not fully specified (C-terminus, bridges); ends and bridges not checked; UniProt P10997 34-70, looked up, variant K1*) [human amylin analog where the lysine in position 1 is lacking] | amylin activity in vivo
des-^1Lys^18Arg^25, 28Pro-h-amylin | amylin activity in vivo
